Experimental data taken from the SangsterLogP compilation.

Experiment: method code SF-AS, from PMID: 744242
Conditions: pH 5.6

Compound | logD
CCCn1nc2ccccc2n1 | 2.53
CCOC(=O)CCCCCn1nc2ccccc2n1 | 3.17
NC(=O)CCn1nc2ccccc2n1 | 0.66
CCn1nc2ccccc2n1 | 2.1
CCOC(=O)CCn1nc2ccccc2n1 | 2.12
CCCCC(C)n1nc2ccccc2n1 (stereo not drawn) | 3.78
CCCCCCn1nc2ccccc2n1 | 4.24
NC(=O)Cn1nc2ccccc2n1 | 0.28
CCCCCn1nc2ccccc2n1 | 3.63
NC(=O)CCCCCn1nc2ccccc2n1 | 1.41
CCOC(=O)Cn1nc2ccccc2n1 | 1.85
CCCC(C)n1nc2ccccc2n1 (stereo not drawn) | 3.42
CCOC(=O)CCCCn1nc2ccccc2n1 | 2.85
NC(=O)CCCCn1nc2ccccc2n1 | 1.01
CCC(C)n1nc2ccccc2n1 (stereo not drawn) | 2.95
CCOC(=O)CCCn1nc2ccccc2n1 | 2.41
Cn1nc2ccccc2n1 | 1.64
CC(C)n1nc2ccccc2n1 | 2.54

Other lines, results leading:

logD | Compound
-0.11 | NC(=O)Cn1nnc2ccccc21
0.78 | NC(=O)CCCn1nc2ccccc2n1
2.13 | CCCn1nnc2ccccc21
1.6 | CCOC(=O)CCn1nnc2ccccc21
3.22 | CCCCCn1nnc2ccccc21
0.37 | NC(=O)CCCn1nnc2ccccc21
2.68 | CCOC(=O)CCCCCn1nnc2ccccc21
0.92 | OCCn1nc2ccccc2n1
0.58 | NC(=O)CCCCn1nnc2ccccc21
1.58 | CCn1nnc2ccccc21
1.98 | CC(C)n1nnc2ccccc21
1.86 | CCOC(=O)CCCn1nnc2ccccc21
2.2 | CCOC(=O)CCCCn1nnc2ccccc21
3.7 | CCCCCCn1nnc2ccccc21
0.5 | OCCn1nnc2ccccc21
0.79 | NC(=O)CCCCCn1nnc2ccccc21
2.95 | CCCC(C)n1nnc2ccccc21 (stereo not drawn)
2.31 | CCC(C)n1nnc2ccccc21 (stereo not drawn)
2.57 | CCCCn1nnc2ccccc21
3.12 | CCCCn1nc2ccccc2n1
1.3 | CCOC(=O)Cn1nnc2ccccc21
1.13 | Cn1nnc2ccccc21
3.44 | CCCCC(C)n1nnc2ccccc21 (stereo not drawn)
0.91 | OCCCn1nnc2ccccc21
1.4 | OCCCn1nc2ccccc2n1
